According to article PMC11431785, “From In Vitro Promise to In Vivo Reality: An Instructive Account of Infection Model Evaluation of Antimicrobial Peptides” (International Journal of Molecular Sciences, 2024):
Residues, ends and D or L forms follow the SMILES beside them. No end group written: not given here.

How the values were obtained:
Balb/c mice [1] = assay: Sighting study (tolerance in mice); assay type: in vivo, mouse; settings: for tolerance in sighting study: i.p., 30 mg/kg for Ctn[15-34] and Ctn[15-34] re, 3 mg/kg for Ctn re as initial doses; for time to death of an animal: sighting study, one animal
Experimental: To determine the maximum lethal dose and appropriate doses for the main study, a sighting study (Figure 2A) was first conducted. Peptides (Ctn[15-34], Ctn[15-34] re and Ctn re) were administered intraperitoneally (i.p.) at initial doses of 30 mg/kg for Ctn[15-34] and Ctn[15-34] re and 3 mg/kg for Ctn re. If no toxicity signs were observed, the dose was increased. If toxicity signs or death occurred, a lower dose was administered to another animal until an adequate dose was found. After the sighting study was completed, two main studies were performed.
(§1) Nine clinical parameters were assessed by a scoring system (see Table S1). For each parameter a score from 0 to 3 in increasing severity was used. In the sighting (tolerance) study, the clinical score was measured at 10 min, 30 min, 1 h, 2 h, 4 h, 7 h, 24 h, and 48 h after peptide administration. In assays 1 and 2 of the tolerance study, scoring was recorded twice a week for 2 weeks. In the efficacy study, the clinical score was recorded every 2–3 h on day 0 and twice a day on days 1 and 2. An animal was euthanized if it scored 3 on any parameter, or if a combined score of 7 or above was reached.

[2] = cited from earlier work; for t1/2: human serum mixed 1:1 with peptide 1 mM in water, 37 °C with stirring, aliquots 0-1440 min, TCA precipitation, HPLC
From the text: Table 1 Sequence and properties of peptides in this study. | column: t1/2 (min) || In this work, we focus on crotalicidin (Ctn), a 34-residue AMP from the venom of Crotalus durissus terrificus, a South American pit viper. […] It is, however, slightly toxic to eukaryotic cells, including cancer cells, which makes it a good anticancer peptide (ACP) candidate. Virtual Ctn dissection with elastase yields two fragments, Ctn[1-14] and Ctn[15-34]. While the former (KRFKKFFKKVKKSV) retains the α-helical conformation of Ctn, it loses both the anticance ...

Balb/c mice [3] = assay: Tolerance assay 1; assay type: in vivo, mouse; settings: single i.p. dose, 30 mg/kg Ctn[15-34], 3 mg/kg Ctn re, five female mice per group, 14 days
Experimental: Assay 1: […] randomly distributed groups of five female mice each were used for Ctn[15-34] (30 mg/kg) and Ctn re (3 mg/kg) and negative control (HBS). Ctn[15-34] re was not included due to spontaneous mortality in the sighting study, even at low concentrations. The peptide was administered i.p., and mice were monitored twice on day 0, once a day until day 4, and then three times a week. The study lasted for 14 days, after which the animals were euthanized, and a systematic necropsy was performed.
(§2) Body weight (BW, g) gain (%) was determined at different stages. In the tolerance assays, BW gain was recorded before inoculation and twice a week for 2 weeks. In the efficacy studies, BW gain was likewise measured before inoculation and then twice a day.
as §1

Balb/c mice [4] = assay: Tolerance assay 2; assay type: in vivo, mouse
Experimental: Assay 2: Two randomly distributed groups of six female mice each were given two different concentrations of Ctn[15-34] (30 and 20 mg/kg). Each animal was treated with each dose three times a day for three days.
as §2, §1

A. baumannii [5] = assay: Histopathology: hematoxylin and eosin stain and tissue Gram stain; assay type: in vivo, mouse; settings: infected and treated mice
Experimental: Following termination of the animals, the following organs were harvested and preserved: right lung, digestive system, pancreas, kidneys, liver, spleen, and brain. These organs were fixed in paraformaldehyde at 4 °C for 24 h.
The tissue processing proceeded through a stepwise procedure. Firstly, the tissues underwent a rinse with formalin for 1.5 h, followed by cleaning with distilled water for 5 min. Subsequently, they were dehydrated using a series of graded ethanol solutions: 80% ethanol for 1 h, 96% ethanol for two consecutive immersions lasting 1 h each, and finally, 100% ethanol for 2 consecutive immersions of 1 h each and an additional immersion for 1.5 h. Following dehydration, the tissues were submerged in xylene for two immersions, each lasting 1.5 h, before being placed in hot liquid paraffin for two consecutive immersions of 1 h each and an additional immersion of 2 h. The treated specimens were embedded in tissue cassettes using a TissueTek embedding console and allowed to cool until the paraffin solidified.
From each paraffin block, […] sections were cut using a microtome (Leica) and mounted on slides. These slides underwent rehydration through a series of graded alcohols: 100% ethanol for 5 min, 85% ethanol for 5 min, 70% ethanol for 5 min, and distilled water. […] After drying, the sections were analyzed using a microscope (Leica DMR, Leica Biosystems, IL, United States). […]

[6] = fragments compared with Ctn; cited from earlier work
From the text: In this work, we focus on crotalicidin (Ctn), a 34-residue AMP from the venom of Crotalus durissus terrificus, a South American pit viper. […] It is, however, slightly toxic to eukaryotic cells, including cancer cells, which makes it a good anticancer peptide (ACP) candidate. Virtual Ctn dissection with elastase yields two fragments, Ctn[1-14] and Ctn[15-34]. While the former (KRFKKFFKKVKKSV) retains the α-helical conformation of Ctn, it loses both the anticance ...

A. baumannii [7] = assay: Efficacy assay 1 in mouse systemic infection model; assay type: in vivo
Experimental: (§3) A systemic infection model was established in mice, as described before. Briefly, an aliquot from A. baumannii stock in 15% glycerol at −80 °C was taken to culture in 3 mL of LB overnight at 37 °C and 250 rpm. After an OD600 reading to adjust bacterial concentration, the culture was diluted with an identical volume of 10% porcine mucin (an enhancer of bacterial infectivity) to a final 1 × 10^8 CFU/mL concentration. A 10 mL/kg inoculation volume was used for each animal.
Assay 1: A total of 24 mice (12 male, 12 female) randomly distributed into four groups were infected i.p. as described above, then each group was treated with Ctn[15-34] (30 mg/kg), Ctn re (3 mg/kg), colistin (10 mg/kg, positive control) or vehicle (HBS, negative control). Treatment (performed blindly) was applied 2 h after infection in a single i.p. dose. […]
Nine clinical parameters were assessed by a scoring system (see Table S1). […] In the sighting (tolerance) study, the clinical score was measured at 10 min, 30 min, 1 h, 2 h, 4 h, 7 h, 24 h, and 48 h after peptide administration. In assays 1 and 2 of the tolerance study, scoring was recorded twice a week for 2 weeks. In the efficacy study, the clinical score was recorded every 2–3 h on day 0 and twice a day on days 1 and 2. An animal was euthanized if it scored 3 on any parameter, or if a combined score of 7 or above was reached.

A. baumannii [8] = assay: Colony-forming units (CFU) in mouse tissues; assay type: in vivo
Experimental: CFUs in the spleen and lungs of animals in the efficacy studies were counted after euthanasia. One lung and half of the spleen were extracted from each animal. Animals found dead overnight were excluded. The organs were weighed and homogenized in 1 mL of HBS. Subsequently, six serial 10-fold dilutions were prepared, each dilution seeded on a Petri dish with LB-agar and colonies counted after 16 h incubation at 37 °C. Final CFU counts are expressed relative to organ weight (CFU/g).

A. baumannii [9] = assay: Efficacy assay 2 in mouse systemic infection model; assay type: in vivo
Experimental: as §3
Assay 2: In total, 24 mice (12 male, 12 female) randomly distributed into six groups were infected i.p. as described above, then treated in duplicate groups with Ctn[15-34] (20 mg/kg), colistin (5 mg/kg, positive control) or vehicle (HBS, negative control). Treatment (performed blindly) was applied i.p. 2 h after infection and then every 4 h during day 0, and thrice daily for the next 2 days. All animals were checked for clinical signs twice a day for three days, as described in Table S1. On day 2, animals were euthanized with a 200 mg/kg i.p. dose of pentobarbital.
as §1

CC[C@@H](C)[C@@H](NC(=O)CNC(=O)[C@H](NC(=O)[C@H](NC(=O)[C@H](NC(=O)[C@H]1CCCN1C(=O)[C@H](N)Cc1ccccc1)[C@H](C)CC)[C@H](C)O)C(C)C)C(=O)N[C@@H](C(=O)N[C@H](CCSC)C(=O)N1CCC[C@@H]1C(=O)N[C@H](CCCCN)C(=O)N[C@H](CCCCN)C(=O)N[C@H](Cc1ccccc1)C(=O)N[C@@H](C(=O)N[C@H](CCCCN)C(=O)N[C@H](CCCCN)C(=O)N[C@H](CC(C)C)C(=O)N[C@H](CCCNC(=N)N)C(=O)N[C@H](CCCCN)C(=O)N[C@H](CCCCN)C(=O)N[C@@H](C(=O)N[C@H](CO)C(=O)N[C@H](CCCCN)C(=O)N[C@H](CCCCN)C(=O)N[C@@H](C(=O)N[C@H](CCCCN)C(=O)N[C@H](CCCCN)C(=O)N[C@H](Cc1ccccc1)C(=O)N[C@H](Cc1ccccc1)C(=O)N[C@H](CCCCN)C(=O)N[C@H](CCCCN)C(=O)N[C@H](Cc1ccccc1)C(=O)N[C@H](CCCNC(=N)N)C(=O)N[C@H](CCCCN)C(N)=O)C(C)C)C(C)C)[C@H](C)CC)C(C)C [Ctn re] (HELM PEPTIDE1{[dF].[dP].[dI].[dT].[dV].G.[dI].[dV].[dM].[dP].[dK].[dK].[dF].[dI].[dK].[dK].[dL].[dR].[dK].[dK].[dV].[dS].[dK].[dK].[dV].[dK].[dK].[dF].[dF].[dK].[dK].[dF].[dR].[dK].[am]}$$$$V2.0)
tolerance in sighting study (Balb/c mice [1]): viable at the predicted dosages | t1/2 [2]: 3.52 h | clinical condition in tolerance assay 1 (Balb/c mice [3]): most animals showed improved clinical conditions in the following days

CC[C@@H](C)[C@@H](NC(=O)CNC(=O)[C@H](NC(=O)[C@H](NC(=O)[C@H](NC(=O)[C@H]1CCCN1C(=O)[C@H](N)Cc1ccccc1)[C@H](C)CC)[C@H](C)O)C(C)C)C(=O)N[C@@H](C(=O)N[C@H](CCSC)C(=O)N1CCC[C@@H]1C(=O)N[C@H](CCCCN)C(=O)N[C@H](CCCCN)C(=O)N[C@H](Cc1ccccc1)C(=O)N[C@@H](C(=O)N[C@H](CCCCN)C(=O)N[C@H](CCCCN)C(=O)N[C@H](CC(C)C)C(=O)N[C@H](CCCNC(=N)N)C(=O)N[C@H](CCCCN)C(=O)N[C@H](CCCCN)C(N)=O)[C@H](C)CC)C(C)C [Ctn[15-34] re] (HELM PEPTIDE1{[dF].[dP].[dI].[dT].[dV].G.[dI].[dV].[dM].[dP].[dK].[dK].[dF].[dI].[dK].[dK].[dL].[dR].[dK].[dK].[am]}$$$$V2.0)
time to death of an animal (Balb/c mice [1]; 5 mg/kg i.p.): 33 min | time to death of an animal (Balb/c mice [1]; 15 mg/kg i.p.): ≤ 6 min | time to death of an animal (Balb/c mice [1]; 30 mg/kg i.p.): ≤ 3 min | tolerance in sighting study (Balb/c mice [1]): toxic | t1/2 [2]: 15.4 h

KKRLKKIFKKPMVIGVTIPF-NH2 [Ctn[15-34]]
clinical signs in tolerance assay 2 (Balb/c mice [4]; 20 mg/kg i.p. thrice daily for 3 days, compared with 30 mg/kg): reversible and consistently lower than for the 30 mg/kg group | BW loss during the first 24 h (Balb/c mice [4]; 30 and 20 mg/kg i.p. thrice daily for three days, both dosage groups, six female mice each): 6–9% | tolerance in sighting study (Balb/c mice [1]): viable at the predicted dosages | t1/2 [2]: 12.8 h | clinical condition in tolerance assay 1 (Balb/c mice [3]): most animals showed improved clinical conditions in the following days | hematoxylin and eosin staining of spleen, lung, liver and kidney (A. baumannii [5]): apoptosis was noted in the spleen lymphocytes of one animal

KRFKKFFKKVKKSV [Ctn[1-14], fragment of crotalicidin, residues 1-14]
anticancer and antimicrobial properties [6]: loses both the anticancer and antimicrobial properties

LL-37: AMP named for comparison of half-life [reference compound]
half-life ([2]; typical AMP named for comparison with Ctn[15-34], no reference given): 1 h

colistin
clinical signs of treated infected animals (A. baumannii [7]; efficacy assay 1, colistin 10 mg/kg single i.p. dose): weight loss on the first day with subsequent recovery | survival rate (A. baumannii [7]; efficacy assay 1, single i.p. dose 2 h after infection, colistin 10 mg/kg, 3 days): 100% | CFU/g in left lung and spleen (A. baumannii [8]; after both efficacy studies, positive control group): 10^1–10^2 CFU/g | bacterial presence in the spleen or lungs (A. baumannii [8]; efficacy study 2, animals not surviving the thrice daily colistin dosage): nearly negligible | clinical signs of treated infected animals (A. baumannii [9]; efficacy study 2, thrice daily dose of colistin, compared to the previous study): Increased toxicity | female animals surviving at the endpoint (A. baumannii [9]; efficacy study 2, thrice daily i.p. dosing, female mice): 75% | male animals surviving at the endpoint (A. baumannii [9]; efficacy study 2, thrice daily i.p. dosing, male mice): 50% | Gram stain, bacterial load in spleen, lung, liver and kidney (A. baumannii [5]): no evidence of bacterial survival
